Data: ChEMBL document CHEMBL2321732, “Synthesis and evaluation of novel 2,3,5-triaryl-4H,2,3,3a,5,6,6a-hexahydropyrrolo[3,4-d]isoxazole-4,6-diones for advanced glycation end product formation inhibitory activity” (Bioorg Med Chem Lett, 2013)

Assay: Antiglycation activity assessed as inhibition of glucose-mediated advanced glycation end product formation after 30 hrs by fluorescence spectrophotometry in presence of bovine serum albumin
Assay type: physicochemical

Structure (SMILES) | IC50 [µM]
O=C1[C@H]2[C@@H](c3ccccc3O)N(c3ccccc3)O[C@H]2C(=O)N1c1ccccc1 (relative stereo) | 25.9
O=C(O)c1ccc(N2C(=O)[C@H]3[C@@H](c4ccccc4Cl)N(c4ccccc4)O[C@H]3C2=O)cc1 (relative stereo) | 33
COc1ccc(N2C(=O)[C@H]3[C@@H](c4ccccc4Cl)N(c4ccccc4)O[C@H]3C2=O)cc1 (relative stereo) | 8.63
Cc1ccc(N2C(=O)[C@@H]3[C@@H](ON(c4ccccc4)[C@H]3c3ccccc3Cl)C2=O)cc1 (relative stereo) | 23.9
O=C(O)c1ccc(N2C(=O)[C@@H]3[C@@H](ON(c4ccccc4)[C@H]3c3ccccc3Cl)C2=O)cc1 (relative stereo) | 127
Cc1ccc(N2C(=O)[C@@H]3[C@@H](ON(c4ccccc4)[C@H]3c3ccccc3O)C2=O)cc1 | 75
O=C(O)c1ccc(N2C(=O)[C@@H]3[C@@H](ON(c4ccccc4)[C@H]3c3ccccc3O)C2=O)cc1 (relative stereo) | 63.9
O=C(O)c1ccc(N2C(=O)[C@H]3[C@@H](c4ccccc4O)N(c4ccccc4)O[C@H]3C2=O)cc1 (relative stereo) | 24.4
COc1ccc(N2C(=O)[C@@H]3[C@@H](ON(c4ccccc4)[C@H]3c3ccccc3Cl)C2=O)cc1 (relative stereo) | 24.2
Cc1ccc(N2C(=O)[C@H]3[C@@H](c4ccccc4O)N(c4ccccc4)O[C@H]3C2=O)cc1 (relative stereo) | 18.8
O=C1[C@@H]2[C@@H](ON(c3ccccc3)[C@H]2c2ccccc2O)C(=O)N1c1ccccc1 (relative stereo) | 64.8
COc1ccc(N2C(=O)[C@H]3[C@@H](c4ccccc4O)N(c4ccccc4)O[C@H]3C2=O)cc1 (relative stereo) | 26.6
O=C1[C@H]2[C@@H](c3ccccc3Cl)N(c3ccccc3)O[C@H]2C(=O)N1c1ccccc1 (relative stereo) | 7.4
Cc1ccc(N2C(=O)[C@H]3[C@@H](c4ccccc4Cl)N(c4ccccc4)O[C@H]3C2=O)cc1 (relative stereo) | 7.18
COc1ccc(N2C(=O)[C@@H]3[C@@H](ON(c4ccccc4)[C@H]3c3ccccc3O)C2=O)cc1 (relative stereo) | 90.1
N=C(N)NN [PIMAGEDINE] | 40.5
O=C1[C@@H]2[C@@H](ON(c3ccccc3)[C@H]2c2ccccc2Cl)C(=O)N1c1ccccc1 (relative stereo) | 30.9
